Reference: US20210236476A1, “METHODS OF TREATING CANCER WITH SMALL MOLECULE PD-L1 INHIBITORS” (CHEMOCENTRYX, INC., priority 2018, published 2021)
Entries after “also recorded” stand apart in the source; their conditions may differ.

What was measured:
[1] = test system: A375 human melanoma cells; assay: therapeutic dosing, A375 melanoma/PBMC co-implantation model; assay type: in vivo, NOD/SCID mice; conditions: established A375 tumors co-injected with human PBMCs; Compound 1.041 30mg/kg bid, anti-hPD-L1 5 mg/kg i.p., from day 28
Source text: (§1) Co-crystallized human PD-1/PD-L1 provided structural information from which we developed a number of small molecule checkpoint inhibitors. Active compounds were first profiled by an ELISA assay measuring inhibition of the PD-1/PD-L1 interaction, followed by functional cell-based reporter and mixed lymphocyte reaction (MLR) assays. PD-1/PD-L1 inhibitory compounds thus identified were further selected for in vivo model testing.
As briefly described in Example 1 the therapeutic activity of Compound 1.041 was tested using immunodeficient NOD/SCID mice (NOD.CB17-Prkdc^scid/NCrHsd) where A375 human melanoma cells were co-implanted along with human peripheral blood mononuclear cells (PBMCs). The mice were broken into 4 groups (n=7 each group): +PBMCs+Vehicle; +PBMCs+Compound 1.041; +PBMCs +Isotype antibody; and +PBMCs+anti-hPD-L1. Anti-hPD-L1 and isotype matched control antibody were injected i.p. at 5 mg/kg on day 28, 32, 36, 40, and 44. Compound 1.041 (30mg/kg) and vehicle dose (1% HPMC) p.i. twice daily (bid) starting on day 28.

[2] = target: recombinant PD-L1 proteins (dimerization) (Homo sapiens, UniProt Q9NZQ7); assay: dimerization ELISA assay; assay type: binding; conditions: FIG. 1B
Method: The activity of Compound 1.041 was assessed with an ELISA assay assessing the direct binding of recombinant PD-1 and PD-L1 proteins (FIG. 1A), a dimerization ELISA assay assessing the direct binding/dimerization of recombinant PD-L1 proteins (FIG. 1B), a cell based assay measuring the downstream signaling following the interaction of PD-1 and PD-L1 using a Luciferase reporter assay with cell lines overexpressing PD-1 and PD-L1 (FIG. 1C), and a mixed lymphocyte reaction assay measuring the functional outcome of upregulation of IFNg secretion, using allogenic primary human immune cells (FIG. 1D). Briefly, the mixed lymophocyte reaction assay was performed as follows: Dendritic cells and CD4+T Cells from unmatched donors were cultured together for 5 days in 96 well-flat bottom plates. Test compound was added as indicated at starting concentration of 1 μM with 1:4 dilutions with DMSO. Supernatants were harvested after 5 days of incubation and detection of human IFNg was performed by ELISA.

hCD11C+hCD3- cells = assay: PD-L1 Surface Expression Assay (FACS); assay type: cell-based, human; conditions: 16 hours, FIG. 2C
Method: Briefly, this assay was performed as follows: Cells were seeded in 12 well plates. Test compounds or antibodies were added for 16 hours at different concentrations. Cells were washed and stained with anti-human PD-L1, anti-human CD11C and anti-human CD3 for 20 minutes at RT before performing FACS analysis. Matching isotype was used as a control.

[3] = target: T1, human PD-L1 / human PD-1 interaction (Homo sapiens, UniProt Q9NZQ7); assay: ELISA of PD-1/PD-L1 interaction; assay type: binding
T1 construct: purchased R&D (PD-L1); ACRO Biosystems (PD-1, biotin)
In short: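 Plates coated with 1 μg/mL human PD-L1 and blocked with BSA; serially diluted (1:5) compounds plus biotinylated human PD-1 (0.3 μg/mL) incubated 1 h at 37° C. Bound PD-1 detected with streptavidin-HRP/TMB, absorbance at 450 nm.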

[4] = test system: human T-cells in A375 tumors; assay: tumor microenvironment analysis by flow cytometry (therapeutic dosing study); assay type: in vivo, NOD/SCID mice; conditions: compared to vehicle
Method: The tumor microenvironement of vehicle and Compound 1.041 treatments from the above experiment were further explored by dissecting, mincing and digested with collagenase D the tumors from relevant mice for analysis by flow cytometry. Briefly, this assay was performed as follows: Excised tumors were finely chopped with a blade and digested for 60 minutes at 37° C. in MSS 1X containing 2mg/ml of collagenase D and 1U/ml of DNAse I. Single cells were washed and resuspended in FACS buffer (PBS 1X with 10% FBS and 0.1% azide) containing the following monoclonal antibodies (hCD4 in FITC, PD-L1 in PE, CD3 in PercP-Cy5.5, CD45 in PE-Cy7, PD-1 in APC, CD8a in APC-Cy7, CD69 in Pacific Blue and LIVE/DEAD fixable Aqua stain). Isotype-matched controls were used as negative controls. Flow cytometry data were acquired with a FACSCanto II (BD Biosciences, San Jose, Calif.) cytometer and analyzed using FlowJO. […] The flow cytometer was gated on live cells singlets, hCD45^+ and hCD3^+ cells.

MDA-MB-231 cells = assay: flow cytometry of PD-L1 surface staining with acid wash; assay type: cell-based, human; conditions: FIG. 3
Method: To further investigate the possibility that Compound 1.041 reduces PD-L1 surface expression, flow cytometry analysis was formed on MDA-MB-231 cells after PD-L1 surface staining. An acid-wash protocol (cells were washed 3 times (5 minutes with shaking) with cold acid wash buffer (DMEM containing 0.2% BSA and adjusted to a 3.5 pH) followed by 3 washes (5 minutes with shaking) with ice cold PBS 1X) was used to confirm that differences in PD-L1 cell surface staining was not due to tested article interfering with detection antibody binding.

human PBMCs = assay: T-Cell Exhaustion assay (SEB); assay type: cell-based; conditions: human PBMCs stimulated with 100ng/mL SEB for three days; FIG. 2A
[5] = test system: A375 human melanoma cells; assay: prophylactic dosing, A375 melanoma/PBMC co-implantation model; assay type: in vivo, NOD/SCID mice; conditions: Compound 1.041 30mg/kg bid, anti-hPD-L1 5 mg/kg i.p.
Source text: as §1
As briefly described in Example 1, the prophylactic activity of Compound 1.041 was tested using immunodeficientp NOD/SCID mice (NOD.CB17-Prkdc^scid/NCrHsd) where A375 human melanoma cells were co-implanted along with human peripheral blood mononuclear cells (PBMCs). The mice were broken into 8 groups (n =10 each group): +/−PBMCs+Vehicle; +/−PBMCs+Compound 1.041; +/−PBMCs+Isotype antibody; and +/−PBMCs+anti-hPD-L1. Anti-hPD-L1 and isotype matched control antibody were injected i.p. at 5 mg/kg on day 1, 5, 9, 13, and 17. Compound 1.041 (30mg/kg) and vehicle dose (1% HPMC) p.i. twice daily (bid) starting on day 1.

T1 sequence (Q9NZQ7 19-239 limits assumed): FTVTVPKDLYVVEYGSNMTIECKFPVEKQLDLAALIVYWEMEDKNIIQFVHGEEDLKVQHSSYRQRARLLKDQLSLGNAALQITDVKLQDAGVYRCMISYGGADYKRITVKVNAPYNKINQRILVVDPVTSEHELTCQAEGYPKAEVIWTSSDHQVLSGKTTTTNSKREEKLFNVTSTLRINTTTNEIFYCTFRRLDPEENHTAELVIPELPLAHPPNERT
recombinant PD-L1 proteins (dimerization), sequence (Q9NZQ7 19-239 limits assumed): as above

C[C@@](CO)(NCc1cc(Cl)c(O[C@H]2CCc3c(-c4cccc(OCCCN5CC(O)C5)c4Cl)cccc32)cc1OCc1cncc(C#N)c1)C(=O)O [Compound 1.041, (S)-2-((5-chloro-4-(((S)-4(2-chloro-3-(3-(3-hydroxyazetidin-1-yl)propoxy)phenyl)-2,3-dihydro-1H-inden-1-yl)oxy)-2-((5-cyanopyridin-3-yl)methoxy)benzyl)amino)-3-hydroxy-2-methylpropanoic acid]
relative tumor growth [1]: reduced tumor growth in vivo to a similar extent as the positive control anti-human PD-L1 antibody; also recorded: significant inhibitory effect | induction of hPD-L1 dimerization [2]: induction of hPD-L1 dimerization | PD-L1 surface expression (hCD11C+hCD3- cells): significantly reduced PD-L1 surface expression | blocking of PD-1/PD-L1 interaction ([3]; FIG. 1, stated collectively for the assays): highly potent and blocks PD-1/PD-L1 interaction | PD-1 expression (mean fluorescence intensity) ([4]; human CD8+ T-cells from treated mice, FIG. 10): reduction in PD-1 expression | percentage of hCD8+ T-Cells in contrast to hCD4+ T-Cells ([4]; tumors, FIG. 9A-B): increases the percentage of hCH8^+ T-cells relative to hCH4^+ T-cells | ratio of hCD8+/hCD4+ T-cells ([4]; tumors, FIG. 9C): significantly higher CD8^+ T-Cell/CD4^+ T-cell ratio | PD-L1 surface staining (MDA-MB-231 cells): reduced PD-L1 surface staining intensive; also recorded: PD-L1 expression decreases | reversal of T cell exhaustion phenotype (IFN-g induction by SEB) (human PBMCs): reversed T cell exhaustion phenotype; also recorded: reverses T-Cell exhaustion phenotype | tumor growth ([5]; A375 cells + co-injected hPBMCs, from day 1): reduced tumor growth in vivo to a similar extent as the positive control anti-human PD-L1 antibody; also recorded: inhibited tumor growth | tumor growth ([5]; A375 cells alone (no hPBMCs)): no effect on A375 tumor growth

N#Cc1cncc(COc2cc(O[C@H]3CCc4c(-c5cccc(OCCCN6CC7(CC(O)C7)C6)c5Cl)cccc43)c(Cl)cc2CN[C@H]2CCC[C@@H]2O)c1
IC50 [3]: < 5 nM

N#Cc1cncc(COc2cc(O[C@H]3CCc4c(-c5cccc(OCCCN6CC7(CC(F)C7)C6)c5Cl)cccc43)c(Cl)cc2CN[C@H]2CCC[C@H]2O)c1
IC50 [3]: < 5 nM

CCOc1cc(O[C@H]2CCc3c(-c4cccc(OCCCN5CC6(CC(O)C6)C5)c4C)cccc32)c(Cl)cc1CN[C@@H](CO)C(=O)O
IC50 [3]: < 5 nM

C[C@@H](O)[C@H](NCc1cc(Cl)c(O[C@H]2CCc3c(-c4cccc(OCCCN5CCC(C)(F)CC5)c4Cl)cccc32)cc1OCc1cncc(C#N)c1)C(=O)NS(C)(=O)=O
IC50 [3]: < 5 nM

Cc1c(OCCCN2CC[C@@H](O)[C@H](F)C2)cccc1-c1cccc2c1CC[C@@H]2Oc1cc(OCc2cncc(C#N)c2)c(CN[C@H](C(=O)O)[C@@H](C)O)cc1Cl
IC50 [3]: 5 to 500 nM

N#Cc1cncc(COc2cc(O[C@H]3CCc4c(-c5cccc(OCCCN6CCC(O)CC6)c5Cl)cccc43)c(Cl)cc2CNC[C@H]2CCC(=O)N2)c1
IC50 [3]: < 5 nM
